Assay results as given in patent US6737383B1, “Herbicidal oxadiazolidines” (priority 1999, dated 2004).

What was measured:
[1] = test system: smallflower flatsedge; experiment: Test B flood test smallflower flatsedge; format: in vivo, Cyperus difformis
Outline: (§1)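 Plants were grown to the 2-leaf stage before treatment with test chemical, then held in a greenhouse for twelve to sixteen days. Injury was visually rated against untreated controls on a 0–10 scale, where 0 is no effect and 10 is complete control.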

[2] = test system: wheat; experiment: Test B pre/postemergence wheat; format: in vivo, Triticum aestivum
Outline: (§2)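 Test chemicals in a non-phytotoxic solvent mixture with surfactant were sprayed preemergence onto planted seeds and postemergence onto plants 2 to 18 cm tall (1- to 4-leaf stage). After twelve to sixteen days in a greenhouse, injury was visually rated against untreated controls from 0 (no effect) to 10 (complete control).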

[3] = test system: soybean; experiment: Test B pre/postemergence soybean; format: in vivo, Glycine max
Outline: as §2

[4] = test system: bedstraw; experiment: Test B pre/postemergence bedstraw; format: in vivo, Galium aparine; settings: Rate 62 g/ha, Postemergence; scale 0 to 10 (0 no effect, 10 complete control)
Outline: as §2

[5] = test system: pigweed; experiment: Test B pre/postemergence pigweed; format: in vivo, Amaranthus retroflexus
Outline: as §2

[6] = test system: giant foxtail; experiment: Test B pre/postemergence giant foxtail; format: in vivo, Setaria faberii
Outline: as §2

[7] = test system: surinam grass; experiment: Test B pre/postemergence surinam grass; format: in vivo, Brachiaria decumbens
Outline: as §2

[8] = test system: purple nutsedge; experiment: Test B pre/postemergence purple nutsedge; format: in vivo, Cyperus rotundus
Outline: as §2

[9] = test system: velvetleaf; experiment: Test B pre/postemergence velvetleaf; format: in vivo, Abutilon theophrasti
Outline: as §2

[10] = test system: corn; experiment: Test B pre/postemergence corn; format: in vivo, Zea mays
Outline: as §2

[11] = test system: duck salad; experiment: Test B flood test duck salad; format: in vivo, Heteranthera limosa
Outline: as §1

[12] = test system: rice; experiment: Test B flood test rice; format: in vivo, Oryza sativa
Outline: as §1

[13] = test system: rape; experiment: Test B pre/postemergence rape; format: in vivo, Brassica napus
Outline: as §2

[14] = test system: sugar beet; experiment: Test B pre/postemergence sugar beet; format: in vivo, Beta vulgaris
Outline: as §2

[15] = test system: wild oat; experiment: Test B pre/postemergence wild oat; format: in vivo, Avena fatua
Outline: as §2

[16] = test system: cocklebur; experiment: Test B pre/postemergence cocklebur; format: in vivo, Xanthium strumarium
Outline: as §2

[17] = Rate 62 g/ha, flood test species, Pre-emergence, visual evaluation after twelve to sixteen days
[18] = Rate 125 g/ha, under heading Pre-emergence, flood test species, visual evaluation after twelve to sixteen days
[19] = Rate 250 g/ha, Pre-emergence (flood test species), scale 0 to 10, 0 is no effect, 10 is complete control
[20] = Rate 500 g/ha, Pre-emergence, flood test species, scale 0 to 10 (0 no effect, 10 complete control)
[21] = Postemergence, Rate 250 g/ha, scale 0 to 10
[22] = Postemergence, Rate 500 g/ha, scale of 0 to 10 where 0 is no effect and 10 is complete control
[23] = Preemergence, Rate 62 g/ha, scale of 0 to 10 where 0 is no effect and 10 is complete control
[24] = Preemergence, Rate 125 g/ha, scale of 0 to 10 where 0 is no effect and 10 is complete control
[25] = Preemergence, Rate 250 g/ha, scale 0 to 10, 0 is no effect, 10 is complete control
[26] = Preemergence, Rate 500 g/ha, scale 0 to 10, 0 is no effect, 10 is complete control
[27] = Rate 62 g/ha, Postemergence, scale 0 to 10 (0 no effect, 10 complete control)
[28] = Rate 125 g/ha, Postemergence, scale 0 to 10, 0 is no effect, 10 is complete control

COCC(OC)n1c(=O)on(C(=O)N(c2ccc(F)cc2)C(C)C)c1=O (stereo not shown) [Compound 446]
0: Plant response rating, S. Flatsedge (0 to 10 scale, 0 is no effect, 10 is complete control) [1, 17] | S. Flatsedge plant response rating (0 to 10 scale, 0 is no effect, 10 is complete control) [1, 18] | S. Flatsedge plant response rating [1, 19] | S. Flatsedge plant response rating [1, 20] | Plant response rating, Wheat [2, 23] | Wheat plant response rating [2, 27] | Wheat plant response rating [2, 28] | Plant response rating, Soybean [3, 23] | Plant response rating, Soybean [3, 24] | Bedstraw plant response rating [4] | Redroot pigweed plant response rating [5, 21] | Redroot pigweed plant response rating [5, 22] | Redroot pigweed plant response rating [5, 27] | Redroot pigweed plant response rating [5, 28] | Plant response rating, B. signalgrass [7, 23] | Nutsedge plant response rating [8, 21] | Nutsedge plant response rating [8, 22] | Plant response rating, Nutsedge [8, 23] | Plant response rating, Nutsedge [8, 24] | Nutsedge plant response rating [8, 25] | Nutsedge plant response rating [8, 26] | Nutsedge plant response rating [8, 27] | Nutsedge plant response rating [8, 28] | Plant response rating, Velvetleaf [9, 23] | Velvetleaf plant response rating [9, 27] | Velvetleaf plant response rating [9, 28] | Corn plant response rating [10, 21] | Plant response rating, Corn [10, 23] | Plant response rating, Corn [10, 24] | Corn plant response rating [10, 27] | Corn plant response rating [10, 28] | Plant response rating, Ducksalad (0 to 10 scale, 0 is no effect, 10 is complete control) [11, 17] | Ducksalad plant response rating (0 to 10 scale, 0 is no effect, 10 is complete control) [11, 18] | Ducksalad plant response rating [11, 19] | Ducksalad plant response rating [11, 20] | Plant response rating, Rice (0 to 10 scale, 0 is no effect, 10 is complete control) [12, 17] | Rice plant response rating (0 to 10 scale, 0 is no effect, 10 is complete control) [12, 18] | Rice plant response rating [12, 19] | Rice plant response rating [12, 20] | Rape plant response rating [13, 21] | Rape plant response rating [13, 22] | Plant response rating, Rape [13, 23] | Plant response rating, Rape [13, 24] | Rape plant response rating [13, 27] | Rape plant response rating [13, 28] | Sugarbeets plant response rating [14, 21] | Sugarbeets plant response rating [14, 22] | Plant response rating, Sugarbeets [14, 23] | Sugarbeets plant response rating [14, 27] | Sugarbeets plant response rating [14, 28] | Plant response rating, Wild oats [15, 23] | Wild oats plant response rating [15, 27] | Wild oats plant response rating [15, 28] | Cocklebur plant response rating [16, 21] | Cocklebur plant response rating [16, 22] | Plant response rating, Cocklebur [16, 23] | Plant response rating, Cocklebur [16, 24] | Cocklebur plant response rating [16, 25] | Cocklebur plant response rating [16, 26] | Cocklebur plant response rating [16, 27] | Cocklebur plant response rating [16, 28]
7: Wheat plant response rating [2, 26] | B. signalgrass plant response rating [7, 25] | Velvetleaf plant response rating [9, 25]
2: Plant response rating, Wheat [2, 24] | Soybean plant response rating [3, 25] | Soybean plant response rating [3, 26] | Soybean plant response rating [3, 28] | B. signalgrass plant response rating [7, 27] | Velvetleaf plant response rating [9, 21] | Corn plant response rating [10, 25]
3: Wheat plant response rating [2, 21] | Wheat plant response rating [2, 22] | Wheat plant response rating [2, 25] | B. signalgrass plant response rating [7, 28] | Velvetleaf plant response rating [9, 22] | Plant response rating, Velvetleaf [9, 24] | Wild oats plant response rating [15, 21] | Wild oats plant response rating [15, 22]
9: Giant foxtail plant response rating [6, 21] | Giant foxtail plant response rating [6, 22] | Plant response rating, Giant foxtail [6, 23] | Giant foxtail plant response rating [6, 28]
1: Soybean plant response rating [3, 27]
10: Plant response rating, Redroot pigweed [5, 24] | Redroot pigweed plant response rating [5, 25] | Redroot pigweed plant response rating [5, 26] | Plant response rating, Giant foxtail [6, 24] | Giant foxtail plant response rating [6, 25] | Giant foxtail plant response rating [6, 26] | Velvetleaf plant response rating [9, 26] | Rape plant response rating [13, 26] | Wild oats plant response rating [15, 26]
4: Soybean plant response rating [3, 21] | Soybean plant response rating [3, 22] | Plant response rating, Sugarbeets [14, 24]
8: B. signalgrass plant response rating [7, 22] | B. signalgrass plant response rating [7, 26] | Rape plant response rating [13, 25] | Sugarbeets plant response rating [14, 26] | Wild oats plant response rating [15, 25]
6: Plant response rating, Redroot pigweed [5, 23] | Giant foxtail plant response rating [6, 27] | B. signalgrass plant response rating ([7]; Postemergence, Rate 250 g/ha, scale 0 to 10, 0 no effect, 10 complete control) | Plant response rating, B. signalgrass [7, 24] | Corn plant response rating [10, 26] | Sugarbeets plant response rating [14, 25]
5: Corn plant response rating [10, 22] | Plant response rating, Wild oats [15, 24]
